Experimental data as given in patent US12478601B2, “Dietary product devoid of at least two non essential amino acids” (CANCER RESEARCH TECHNOLOGY LIMITED, priority 2016, dated 2025).
“Also recorded” adds a separate entry of the source.

Legend:
MDA-MB-231 cells = assay: Cysteine starvation of MDA-MB-231 cells after AMD1 inhibitor pre-treatment; assay type: cell-based; details: 20 uM for 16 h before medium lacking cysteine
Description: FIG. 40. […] MDA-MB-231 cells were initially seeded in complete (DMEM) medium in 24-well plates. After 24 h, cells were treated with AMD1 inhibitor Sardomozide (20 uM) for 16 h or left untreated (Ctr). Cells were then washed with PBS and given medium lacking cysteine but containing all 19 other amino acids. Images (panel a) were captured using a light microscope, and cell counts (panel b) were performed using a CASY TT cell counter. Data are average of three wells. Error bars=STDEV.
(§1) Cells (4×10^4-1×10^5) were seeded in complete RPMI or DMEM medium in 24-well plates and allowed to adhere overnight. Cells were then washed with PBS and received assay medium supplemented with the stated amino acids/metabolites/drugs. Assay medium was formulated based on RPMI-1640 medium but lacking amino acids, which were added individually depending on the assay. Assay medium was also supplemented with additional vitamin B6 (20 uM), a co-factor for cysteine synthesis. Cells were counted (using Casy TT cell counter, Innovatis, Roche Applied Science) at the stated time-points, using a “time=0” plate to calculate relative cell number from time of medium change.

[1] = system: Colorectal and breast cancer cell lines; assay: Rescue from cysteine starvation by homocysteine supplementation; assay type: cell-based; details: homocysteine 0.2 mM & 0.8 mM, three days
Description: FIG. 39. […] Colorectal and breast cancer cell lines were grown in 24-well plates. Basal medium was formulated (based on RPMI medium) lacking cysteine but containing all 19 other essential and non-essential amino acids. This basal medium was supplemented with the stated components; cysteine 0.4 mM (+Cys), homocysteine 0.2 mM & 0.8 mM (HC) and grown for three days. Data are average of three wells. Error bars=STDEV.
as §1

In the case of N=C(N)N/N=C1\CCc2c(C(=N)N)cccc21 [Sardomozide], the “protection from cell death in cysteine starvation” value (MDA-MB-231 cells) was “protects cells from acute sensitivity (i.e. cell death) to cysteine starvation”.

In the case of N[C@@H](CCS)C(=O)O [homocysteine], the “rescue from cysteine starvation” value [1] was “rescued from cysteine starvation; also recorded: significant rescue from cysteine starvation”.
